Among the test systems are MOLT-4 leukemia; HOP-62 NSCLC; NCI-H226 lung; DMS 114 small cell lung; M19-MEL melanoma; ACHN renal; LXFL 529 NSCLC; UO-31 renal; SN12C renal; DLD-1 colon; SK-OV-3 ovarian; PC-3 prostate.
Common to all, as to test: inhibition of tumour cell growth, NCI panel, 48 h

Where “and” joins values, the source holds several entries; their conditions need not be identical. Identical values can stand only once.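 Where inhibition never reached the appropriate level, the endpoint shown equals the highest concentration tested. Otherwise, values were interpolated linearly from a five-concentration, 48-hour dose response in 96-well plates. Abbreviation: GI50, concentration required for 50% inhibition of growth. TGI marks complete inhibition of growth.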

For the compound `O=C1CCC2CC(C(=O)c3ccccc3)CCC2CN1` (stereo not drawn) (tested in a mixture with another compound), the TGI with MOLT-4 leukemia, in the assay with HOP-62 NSCLC, in the assay on NCI-H226 lung, in the assay with DMS 114 small cell lung, with M19-MEL melanoma and in the assay with ACHN renal was above 100 µM throughout. In addition, the TGI in the assay with LXFL 529 NSCLC, in the assay with UO-31 renal, in the assay on SN12C renal, in the assay on DLD-1 colon and in the assay with SK-OV-3 ovarian was above 100 µM throughout.

For `CC1C[C@H](C)CC(C(O)CC2CC(=O)N(Cc3ccccc3)C(=O)C2)C1O` (stereo partly drawn), the TGI with MOLT-4 leukemia, in the assay on HOP-62 NSCLC, in the assay on NCI-H226 lung, in the assay on DMS 114 small cell lung, with M19-MEL melanoma and in the assay with ACHN renal was above 100 µM throughout. Also, the TGI in the assay on LXFL 529 NSCLC, in the assay on UO-31 renal, with SN12C renal, in the assay with DLD-1 colon and in the assay with SK-OV-3 ovarian was above 100 µM each time.

Regarding `CCCCCCCCOCC(O)COC(=O)CCCCCCC` (stereo not drawn), the TGI in the assay on MOLT-4 leukemia, in the assay on HOP-62 NSCLC, in the assay with NCI-H226 lung, in the assay on DMS 114 small cell lung, in the assay on M19-MEL melanoma and in the assay with ACHN renal was above 100 µM each time. Further, the TGI with LXFL 529 NSCLC, in the assay with UO-31 renal, in the assay on SN12C renal, in the assay with DLD-1 colon and in the assay on SK-OV-3 ovarian was above 100 µM each time.

Take `COC(=O)/C=C(\C(=O)OC)c1c2c3c(cc(OC)c(OC)c3c3ccccc13)CCN2C`: the TGI in the assay with MOLT-4 leukemia is 89.5 µM; in the assay on HOP-62 NSCLC, 76.7 µM; in the assay with NCI-H226 lung, above 100 µM; in the assay on DMS 114 small cell lung it was 80.7 µM; in the assay with M19-MEL melanoma it was above 100 µM; with ACHN renal, above 100 µM. Besides, the TGI with LXFL 529 NSCLC, in the assay on UO-31 renal, with SN12C renal, in the assay with DLD-1 colon and with SK-OV-3 ovarian was above 100 µM each time.

As to `COc1ccc(C2CC(c3cc(C)ccc3O)=NC(N)=N2)cc1` (stereo not drawn), the TGI in the assay on MOLT-4 leukemia, in the assay with HOP-62 NSCLC, in the assay with NCI-H226 lung, in the assay on DMS 114 small cell lung, in the assay with M19-MEL melanoma and in the assay with ACHN renal was above 100 µM each time. The TGI in the assay on LXFL 529 NSCLC, in the assay with UO-31 renal, in the assay with SN12C renal, in the assay on DLD-1 colon and in the assay with SK-OV-3 ovarian was above 100 µM each time.

For the compound `CC1=CC(=C(c2ccc(N)cc2)c2ccc(N)cc2)C=CC1=N`, the GI50 in the assay with MOLT-4 leukemia is 1.49 µM; in the assay with HOP-62 NSCLC, 0.486 µM; in the assay with NCI-H226 lung, 2.16 µM and 7.35 µM; with PC-3 prostate it was 0.553 µM and 2.58 µM; in the assay on ACHN renal it was 3.9 µM and 5.01 µM; in the assay on UO-31 renal it was 9.52 µM and 14.9 µM. Further, the GI50 in the assay on SN12C renal is 0.422 µM and 0.456 µM; in the assay with SK-OV-3 ovarian it was 2.44 µM and 4 µM. The TGI in the assay on MOLT-4 leukemia was 6.77 µM and > 67 µM; with HOP-62 NSCLC, 1.98 µM and 7.16 µM; with NCI-H226 lung it was 16.5 µM and 19.6 µM and 46.6 µM; with DMS 114 small cell lung, 12.9 µM; in the assay on M19-MEL melanoma, 14.5 µM; with PC-3 prostate it was 10.6 µM and 18.2 µM and 10.1 µM. Besides, the TGI is 18.1 µM and 44.9 µM and 24.3 µM with ACHN renal; 13.6 µM in the assay with LXFL 529 NSCLC; 55.6 µM and 50.5 µM and 41.3 µM in the assay on UO-31 renal; 13.5 µM and 10 µM and 69.3 µM with SN12C renal; above 100 µM in the assay with DLD-1 colon; 8.04 µM and 25.2 µM and 17.2 µM with SK-OV-3 ovarian.

As to `CC(=O)c1ccc(OCC(O)CO)cc1` (stereo not drawn), the TGI in the assay on MOLT-4 leukemia, in the assay with HOP-62 NSCLC, in the assay on NCI-H226 lung, in the assay on DMS 114 small cell lung, in the assay with M19-MEL melanoma and in the assay with ACHN renal was above 100 µM in each case. In addition, the TGI with LXFL 529 NSCLC, in the assay with UO-31 renal, with SN12C renal, with DLD-1 colon and in the assay on SK-OV-3 ovarian was above 100 µM throughout.

With `OCC(O)C(O)C(O)c1nn(-c2ccc(Cl)cc2)c2nc3cc(Cl)c(Cl)cc3nc12` (stereo not drawn), the TGI was above 100 µM in the assay with MOLT-4 leukemia; 71 µM with HOP-62 NSCLC; 58.4 µM in the assay with NCI-H226 lung; above 100 µM in the assay with DMS 114 small cell lung; above 100 µM with M19-MEL melanoma; above 100 µM in the assay with ACHN renal. Also, the TGI with LXFL 529 NSCLC is above 100 µM; in the assay with UO-31 renal, above 100 µM; with SN12C renal it was above 100 µM; in the assay with DLD-1 colon it was above 100 µM; in the assay with SK-OV-3 ovarian it was 58.6 µM.

For the compound `CNCc1cc(OC)ccc1-c1ccc(OC)c(OC)c1OC`, the TGI in the assay on MOLT-4 leukemia, with HOP-62 NSCLC, in the assay with NCI-H226 lung, in the assay on DMS 114 small cell lung, with M19-MEL melanoma and with ACHN renal was above 100 µM each time. For the same compound, the TGI with LXFL 529 NSCLC, with UO-31 renal, in the assay on SN12C renal, with DLD-1 colon and in the assay with SK-OV-3 ovarian was above 100 µM in each case.

Consider `NNC(=O)CNC(=O)c1ccc(Cl)cc1Cl`, for which the TGI with MOLT-4 leukemia, with HOP-62 NSCLC, in the assay with NCI-H226 lung, in the assay with DMS 114 small cell lung, with M19-MEL melanoma and in the assay with ACHN renal was above 100 µM throughout. The TGI in the assay with LXFL 529 NSCLC, with UO-31 renal, in the assay on SN12C renal, in the assay with DLD-1 colon and in the assay with SK-OV-3 ovarian was above 100 µM throughout.

In the case of `CCCCCCCCCCCCCC(=O)OCC1OC(n2cc(F)c(=O)[nH]c2=O)C(NC(=O)OCc2ccccc2)C(OC(=O)CCCCCCCCCCCCC)C1O` (stereo not drawn), the TGI in the assay on MOLT-4 leukemia, in the assay with HOP-62 NSCLC, in the assay on NCI-H226 lung, in the assay with DMS 114 small cell lung, in the assay with M19-MEL melanoma and in the assay with ACHN renal was above 100 µM throughout. Besides, the TGI in the assay with LXFL 529 NSCLC, with UO-31 renal, with SN12C renal, with DLD-1 colon and in the assay on SK-OV-3 ovarian was above 100 µM each time.

For `Cc1cccc2c1N(C(=O)/C=C\C(=O)O)C(c1c(C)[nH]c3ccccc13)C2` (stereo not drawn), the TGI in the assay with MOLT-4 leukemia was above 100 µM; with HOP-62 NSCLC it was above 100 µM; in the assay on NCI-H226 lung it was above 100 µM; with DMS 114 small cell lung, 42.2 µM; in the assay on M19-MEL melanoma it was 53.1 µM; in the assay on ACHN renal it was above 100 µM. The TGI in the assay on LXFL 529 NSCLC is 28.6 µM; in the assay on UO-31 renal it was above 100 µM; with SN12C renal, above 100 µM; in the assay with DLD-1 colon, above 100 µM; in the assay with SK-OV-3 ovarian, above 100 µM.

Regarding `CC1=NOC(=O)/C1=C/c1cccc2ccccc12`, the TGI with MOLT-4 leukemia, in the assay with HOP-62 NSCLC, in the assay on NCI-H226 lung, in the assay on DMS 114 small cell lung, with M19-MEL melanoma and with ACHN renal was above 100 µM in each case. Also, the TGI with LXFL 529 NSCLC, with UO-31 renal, in the assay on SN12C renal, in the assay on DLD-1 colon and in the assay with SK-OV-3 ovarian was above 100 µM throughout.

`O=C(O)C[C@H]1CCCCC12CCOC2=O` (stereo partly drawn): the TGI in the assay on MOLT-4 leukemia, with HOP-62 NSCLC, in the assay on NCI-H226 lung, with DMS 114 small cell lung, in the assay on M19-MEL melanoma and with ACHN renal was above 100 µM throughout. The TGI with LXFL 529 NSCLC, in the assay with UO-31 renal, in the assay with SN12C renal, in the assay with DLD-1 colon and with SK-OV-3 ovarian was above 100 µM in each case.
